# Patent US20220296595A1, “CDK INHIBITORS” (QILU REGOR THERAPEUTICS INC., priority 2019, published 2022)
# Biological target: T1, CDK4/CyclinD1 (Homo sapiens, UniProt P11802)
# T1 construct: purchased Thermofisher PR8064A
# Experiment: Assay for inhibition of CDK4/CyclinD1 (Caliper microfluidic kinase assay)
# Format: biochemical
# Conditions: CDK4/CyclinD1, 200 μM ATP
# Procedure, shortened: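 IC50 was obtained by 4-parameter sigmoidal fitting after 1 nM CDK4/CyclinD1, 200 μM ATP and 1 μM FL-34 substrate reacted for 3 h at room temperature (pH 7.5 HEPES, 10 mM MgCl2). After EDTA quench, substrate and product were separated and detected on a Caliper microfluidic chip.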
# T1 sequence (P11802 whole entry): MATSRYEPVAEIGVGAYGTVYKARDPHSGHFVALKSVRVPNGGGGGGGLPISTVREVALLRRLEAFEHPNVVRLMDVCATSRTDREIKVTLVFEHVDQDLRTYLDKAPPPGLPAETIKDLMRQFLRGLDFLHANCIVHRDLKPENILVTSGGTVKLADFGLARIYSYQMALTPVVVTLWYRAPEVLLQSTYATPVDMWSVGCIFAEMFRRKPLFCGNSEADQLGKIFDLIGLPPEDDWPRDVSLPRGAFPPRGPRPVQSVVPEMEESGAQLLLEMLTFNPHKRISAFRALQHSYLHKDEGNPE
# T1 sequence (P24385 whole entry partner): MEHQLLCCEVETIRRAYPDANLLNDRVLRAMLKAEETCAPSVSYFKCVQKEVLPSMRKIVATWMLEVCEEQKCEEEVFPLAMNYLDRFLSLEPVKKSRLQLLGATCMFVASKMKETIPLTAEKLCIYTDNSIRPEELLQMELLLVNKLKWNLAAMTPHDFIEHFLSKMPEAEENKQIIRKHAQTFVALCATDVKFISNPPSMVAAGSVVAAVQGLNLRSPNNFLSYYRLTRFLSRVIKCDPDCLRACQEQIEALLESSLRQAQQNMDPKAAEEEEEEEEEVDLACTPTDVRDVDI
row,SMILES,IC50
1,CC(C)c1cnn2ccc(-c3nc(Nc4ccc(N5CCNCCC5=O)cn4)ncc3F)cc12 [compound 34],< 10 nM
2,CC(C)c1cnn2ccc(-c3ccnc(Nc4ccc(N5CCC(N6CCNCC6)CC5=O)cn4)n3)cc12 (stereo not shown) [compound 200],< 10 nM
3,CC(C)n1cnc2c(F)nc(-c3nc(Nc4ccc(N5CCC(N(C)C)CC5=O)cn4)ncc3Cl)cc21 (stereo not shown) [compound 278],< 10 nM
4,CC(C)n1cnc2c(F)nc(-c3ccnc(Nc4ccc(N5CCC(N(C)C)CC5=O)cc4)n3)cc21 (stereo not shown) [compound 281],< 10 nM
5,CC(C)n1cnc2c1CN(c1ccnc(Nc3ccc(N4CCC(N(C)C)CC4=O)cn3)n1)CC2 (stereo not shown) [compound 245],< 10 nM
6,CC(C)c1cnn2ccc(-c3ccnc(Nc4ccc(N5CCCNC5=O)cc4)n3)cc12 [compound 173],< 10 nM
7,COc1nc(-c2nc(Nc3ccc(N4CCCNCC4=O)cn3)ncc2F)cc2c1nc(C)n2C(C)C [compound 113],< 10 nM
8,CC1CC(=O)N(c2ccc(Nc3ncc(F)c(-c4ccn5ncc(C(C)C)c5c4)n3)nc2)CCN1 (stereo not shown) [compound 193],< 10 nM

# Tested on: phosphorylation of Retinoblastoma Protein (pRb Ser807/811 or Ser780) in T47D cells
# Experiment: Inhibition of phosphorylation of retinoblastoma protein (pRb) in T47D cell (ELISA)
# Format: cell-based, human
# Conditions: Homo sapiens, T47D, read-out: Phospho T47D Ser807 IC50, pRb Ser807 phosphorylation, T47D cells
# Experimental: T47D breast cancer cells from American Type Culture Collection (ATCC, HTB-133) were plated at 40,000 cells/well in 96-well plates, and were incubated in RPMI 1640 medium (Gibco, 31800105) with 10% Fetal Bovine Serum (FBS, Biowest, FB-1058). Cells were then allowed to adhere overnight at 37° C., 5% CO2. The following day, compounds were titrated in a 3-fold dilution scheme, and the highest compound concentration tested was […]. After 24 hours incubation with compounds, cells were lysed in ice-cold lysis buffer containing phosphatase inhibitor cocktail and 1 mM PMSF. Cell lysates (50 μL/well) were then transferred to ELISA plates (pRb Ser807/811 ELISA kit, Cell Signaling, 13152 or pRb Ser780 ELISA kit, Cell Signaling, 13016)). Plates were incubated overnight at 4° C., with constant slow speed shaking. After incubation, plates were washed following manufacturer's recommendations, and then 100 μL reconstituted detection antibody was added to each well and incubated for 1 hour at 37° C. After incubation, plates were washed, and then 100 μL reconstituted HRP-linked secondary antibody was added to each well and incubated for 30 mins at 37° C. After incubation, plates were washed. Then, 100 μL TMB substrate was added to each well and incubated for 10 min at 37° C. or 30 min at 25° C. Finally, 100 μL of STOP solution was added to each well and mixed gently for a few seconds. Plates were read on the Envision plate reader (PerkinElmer, 2104-0010) using the 96-well […] mode. IC50 values were calculated using 4 parameter sigmoidal dose-response model of Xlfit5/GraphPad Prism 5 software.
row,SMILES,IC50
1,CC(C)c1cnn2ccc(-c3nc(Nc4ccc(N5CCNCCC5=O)cn4)ncc3F)cc12 [compound 34],< 100 nM
2,CC(C)c1cnn2ccc(-c3ccnc(Nc4ccc(N5CCC(N6CCNCC6)CC5=O)cn4)n3)cc12 (stereo not shown) [compound 200],< 100 nM
3,CC(C)n1cnc2c(F)nc(-c3nc(Nc4ccc(N5CCC(N(C)C)CC5=O)cn4)ncc3Cl)cc21 (stereo not shown) [compound 278],< 100 nM
4,CC(C)n1cnc2c(F)nc(-c3ccnc(Nc4ccc(N5CCC(N(C)C)CC5=O)cc4)n3)cc21 (stereo not shown) [compound 281],< 100 nM
5,CC(C)n1cnc2c1CN(c1ccnc(Nc3ccc(N4CCC(N(C)C)CC4=O)cn3)n1)CC2 (stereo not shown) [compound 245],100 to 500 nM
6,CC(C)c1cnn2ccc(-c3ccnc(Nc4ccc(N5CCCNC5=O)cc4)n3)cc12 [compound 173],< 100 nM
7,COc1nc(-c2nc(Nc3ccc(N4CCCNCC4=O)cn3)ncc2F)cc2c1nc(C)n2C(C)C [compound 113],100 to 500 nM
8,CC1CC(=O)N(c2ccc(Nc3ncc(F)c(-c4ccn5ncc(C(C)C)c5c4)n3)nc2)CCN1 (stereo not shown) [compound 193],< 100 nM

# Tested on: T47D breast cancer cells
# Experiment: Anti-proliferation assay in T47D cell (Cyquant, day 6)
# Format: cell-based, human
# Conditions: Homo sapiens, T47D, anti-proliferation, T47D cells; read-out: T47D IC50
# Procedure, shortened: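 A ten-point, 3-fold compound series (10 μM down to 0.51 nM) was applied to overnight-settled cells in 10% FBS RPMI 1640, and DNA content was read by CyQuant fluorescence 6 days later. An untreated plate read before dosing served as baseline for subtraction before IC50 fitting.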
row,SMILES,IC50
1,CC(C)c1cnn2ccc(-c3nc(Nc4ccc(N5CCNCCC5=O)cn4)ncc3F)cc12 [compound 34],< 100 nM
2,CC(C)c1cnn2ccc(-c3ccnc(Nc4ccc(N5CCC(N6CCNCC6)CC5=O)cn4)n3)cc12 (stereo not shown) [compound 200],< 100 nM
3,CC(C)n1cnc2c(F)nc(-c3nc(Nc4ccc(N5CCC(N(C)C)CC5=O)cn4)ncc3Cl)cc21 (stereo not shown) [compound 278],< 100 nM
4,CC(C)n1cnc2c(F)nc(-c3ccnc(Nc4ccc(N5CCC(N(C)C)CC5=O)cc4)n3)cc21 (stereo not shown) [compound 281],< 100 nM
5,CC(C)n1cnc2c1CN(c1ccnc(Nc3ccc(N4CCC(N(C)C)CC4=O)cn3)n1)CC2 (stereo not shown) [compound 245],500 to 1000 nM
6,CC(C)c1cnn2ccc(-c3ccnc(Nc4ccc(N5CCCNC5=O)cc4)n3)cc12 [compound 173],< 100 nM
7,COc1nc(-c2nc(Nc3ccc(N4CCCNCC4=O)cn3)ncc2F)cc2c1nc(C)n2C(C)C [compound 113],100 to 500 nM
8,CC1CC(=O)N(c2ccc(Nc3ncc(F)c(-c4ccn5ncc(C(C)C)c5c4)n3)nc2)CCN1 (stereo not shown) [compound 193],< 100 nM

# Biological target: T2, CDK2/CyclinE1 (Homo sapiens, UniProt P24941)
# T2 construct: purchased SignalChem C29-18G
# Experiment: Assay for inhibition of CDK2/CyclinE1 (Caliper microfluidic kinase assay)
# Format: biochemical
# Conditions: CDK2/CyclinE1, 100 μM ATP; read-out: CDK2 IC50
# Procedure, shortened: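 IC50 came from 4-parameter fits of substrate-to-product conversion, separated on a Caliper chip after an EDTA stop. Reactions ran 3 hours at room temperature with 100 μM ATP, 5 μM fluorescent FL-18 peptide and 5 nM enzyme in 100 mM HEPES pH 7.5, 10 mM MgCl2.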
row,SMILES,IC50
1,CC(C)c1cnn2ccc(-c3nc(Nc4ccc(N5CCNCCC5=O)cn4)ncc3F)cc12 [compound 34],10 to 100 nM
2,CC(C)c1cnn2ccc(-c3ccnc(Nc4ccc(N5CCC(N6CCNCC6)CC5=O)cn4)n3)cc12 (stereo not shown) [compound 200],10 to 100 nM
3,CC(C)n1cnc2c(F)nc(-c3nc(Nc4ccc(N5CCC(N(C)C)CC5=O)cn4)ncc3Cl)cc21 (stereo not shown) [compound 278],100 to 1000 nM
4,CC(C)n1cnc2c(F)nc(-c3ccnc(Nc4ccc(N5CCC(N(C)C)CC5=O)cc4)n3)cc21 (stereo not shown) [compound 281],< 10 nM
5,CC(C)n1cnc2c1CN(c1ccnc(Nc3ccc(N4CCC(N(C)C)CC4=O)cn3)n1)CC2 (stereo not shown) [compound 245],10 to 100 nM
6,CC(C)c1cnn2ccc(-c3ccnc(Nc4ccc(N5CCCNC5=O)cc4)n3)cc12 [compound 173],10 to 100 nM
7,COc1nc(-c2nc(Nc3ccc(N4CCCNCC4=O)cn3)ncc2F)cc2c1nc(C)n2C(C)C [compound 113],100 to 1000 nM
8,CC1CC(=O)N(c2ccc(Nc3ncc(F)c(-c4ccn5ncc(C(C)C)c5c4)n3)nc2)CCN1 (stereo not shown) [compound 193],10 to 100 nM

# Biological target: T3, CDK6/CyclinD3 (Homo sapiens, UniProt Q00534)
# T3 construct: purchased Carna 04-107
# Experiment: Assay for inhibition of CDK6/CyclinD3 (Caliper microfluidic kinase assay)
# Format: biochemical
# Conditions: CDK6/CyclinD3, 300 μM ATP
# Procedure, shortened: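 IC50s came from four-parameter dose-response fits of microfluidic substrate/product separation data. Reactions held 2 nM CDK6/CyclinD3, 300 μM ATP and 1 μM 5-FAM peptide FL-34 in pH 7.5 HEPES/MgCl2 buffer, ran 3 hours at room temperature, then were quenched with EDTA.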
# T3 sequence (Q00534 whole entry): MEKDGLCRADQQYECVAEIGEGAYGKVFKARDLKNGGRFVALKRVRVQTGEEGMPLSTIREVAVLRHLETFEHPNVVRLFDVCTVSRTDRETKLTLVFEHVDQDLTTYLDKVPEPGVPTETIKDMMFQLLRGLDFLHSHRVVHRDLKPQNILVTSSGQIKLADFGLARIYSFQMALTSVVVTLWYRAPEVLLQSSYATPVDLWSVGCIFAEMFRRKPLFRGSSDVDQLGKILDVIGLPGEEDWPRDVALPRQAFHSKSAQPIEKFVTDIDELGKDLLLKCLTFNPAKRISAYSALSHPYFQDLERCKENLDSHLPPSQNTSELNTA
# T3 sequence (P30281 whole entry partner): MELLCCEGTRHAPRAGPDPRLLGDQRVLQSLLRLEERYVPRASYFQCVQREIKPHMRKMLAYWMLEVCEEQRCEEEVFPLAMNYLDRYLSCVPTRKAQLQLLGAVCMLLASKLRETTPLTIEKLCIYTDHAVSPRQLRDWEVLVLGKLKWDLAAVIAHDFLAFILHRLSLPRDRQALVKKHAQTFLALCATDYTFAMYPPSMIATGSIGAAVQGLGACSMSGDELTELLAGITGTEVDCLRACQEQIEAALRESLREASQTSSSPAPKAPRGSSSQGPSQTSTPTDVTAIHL
row,SMILES,IC50
1,CC(C)c1cnn2ccc(-c3nc(Nc4ccc(N5CCNCCC5=O)cn4)ncc3F)cc12 [compound 34],10 to 100 nM
2,CC(C)c1cnn2ccc(-c3ccnc(Nc4ccc(N5CCC(N6CCNCC6)CC5=O)cn4)n3)cc12 (stereo not shown) [compound 200],10 to 100 nM
3,CC(C)n1cnc2c(F)nc(-c3nc(Nc4ccc(N5CCC(N(C)C)CC5=O)cn4)ncc3Cl)cc21 (stereo not shown) [compound 278],10 to 100 nM
4,CC(C)n1cnc2c(F)nc(-c3ccnc(Nc4ccc(N5CCC(N(C)C)CC5=O)cc4)n3)cc21 (stereo not shown) [compound 281],< 10 nM
5,CC(C)n1cnc2c1CN(c1ccnc(Nc3ccc(N4CCC(N(C)C)CC4=O)cn3)n1)CC2 (stereo not shown) [compound 245],100 to 1000 nM
6,CC(C)c1cnn2ccc(-c3ccnc(Nc4ccc(N5CCCNC5=O)cc4)n3)cc12 [compound 173],< 10 nM
7,COc1nc(-c2nc(Nc3ccc(N4CCCNCC4=O)cn3)ncc2F)cc2c1nc(C)n2C(C)C [compound 113],10 to 100 nM
8,CC1CC(=O)N(c2ccc(Nc3ncc(F)c(-c4ccn5ncc(C(C)C)c5c4)n3)nc2)CCN1 (stereo not shown) [compound 193],10 to 100 nM
